Measurements published in PubChem BioAssay (NCI).
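Following 48 hours of exposure in 96-well plates, responses at five concentrations were used to interpolate endpoints linearly. Here, GI50 denotes the concentration required for 50% inhibition of growth. At the TGI there is no net growth.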

Legend:
Test in all cases: NCI anticancer screen, dose series, 48 h
[1] = system: A498 renal
[2] = system: A549 NSCLC
[3] = system: ACHN renal
[4] = system: BT-549 breast
[5] = system: CAKI-1 renal
[6] = system: CCRF-CEM leukemia
[7] = system: DU-145 prostate
[8] = system: EKVX NSCLC
[9] = system: HCC-2998 colon
[10] = system: HCT-116 colon
[11] = system: HCT-15 colon
[12] = system: HL-60(TB) leukemia
[13] = system: HOP-62 NSCLC
[14] = system: HOP-92 NSCLC
[15] = system: HS 578T breast
[16] = system: IGROV1 ovarian
[17] = system: K-562 leukemia
[18] = system: KM12 colon
[19] = system: LOX IMVI melanoma
[20] = system: M14 melanoma
[21] = system: MALME-3M melanoma
[22] = system: MCF7 breast
[23] = system: MDA-MB-231 breast
[24] = system: MDA-MB-435
[25] = system: MDA-MB-468 breast
[26] = system: MOLT-4 leukemia
[27] = system: NCI-H226 lung
[28] = system: NCI-H23 lung
[29] = system: NCI-H460 lung
[30] = system: NCI-H522 lung
[31] = system: NCI/ADR-RES ovarian
[32] = system: OVCAR-3 ovarian
[33] = system: OVCAR-4 ovarian
[34] = system: OVCAR-5 ovarian
[35] = system: OVCAR-8 ovarian
[36] = system: PC-3 prostate
[37] = system: RPMI-8226 leukemia
[38] = system: RXF 393 renal
[39] = system: SF-268 CNS
[40] = system: SF-295 CNS
[41] = system: SF-539 CNS
[42] = system: SK-MEL-2 melanoma
[43] = system: SK-MEL-28 melanoma
[44] = system: SK-MEL-5 melanoma
[45] = system: SK-OV-3 ovarian
[46] = system: SN12C renal
[47] = system: SNB-19 CNS
[48] = system: SNB-75 CNS
[49] = system: SR leukemia
[50] = system: SW-620 colon
[51] = system: T-47D breast
[52] = system: TK-10 renal
[53] = system: U251 CNS
[54] = system: UACC-257 melanoma
[55] = system: UACC-62 melanoma
[56] = system: UO-31 renal

Compound: CCN1CCN(Cc2ccc(C(=O)Nc3cccc(Nc4ccc5c(OC)cccc5n4)c3)cc2C(F)(F)F)CC1
- GI50 [1]: 11800 nM
- TGI [1]: 24900 nM
- GI50 [2]: 2500 nM
- TGI [2]: 11400 nM
- GI50 [3]: 1850 nM
- TGI [3]: 4320 nM
- GI50 [4]: 5350 nM
- TGI [4]: 17400 nM
- GI50 [5]: 1460 nM
- TGI [5]: 3190 nM
- GI50 [6]: 1970 nM
- TGI [6]: 5380 nM
- GI50 [7]: 2550 nM
- TGI [7]: 9250 nM
- GI50 [8]: 4060 nM
- TGI [8]: 15300 nM
- GI50 [9]: 1590 nM
- TGI [9]: 2890 nM
- GI50 [10]: 1450 nM
- TGI [10]: 2640 nM
- GI50 [11]: 1580 nM
- TGI [11]: 3290 nM
- GI50 [12]: 1570 nM
- TGI [12]: 4840 nM
- GI50 [13]: 3670 nM
- TGI [13]: 17600 nM
- GI50 [14]: 1580 nM
- TGI [14]: 5270 nM
- GI50 [15]: 1960 nM
- TGI [15]: 6980 nM
- GI50 [16]: 3090 nM
- TGI [16]: 11200 nM
- GI50 [17]: 2110 nM
- TGI [17]: 86800 nM
- GI50 [18]: 2200 nM
- TGI [18]: 5620 nM
- GI50 [19]: 1450 nM
- TGI [19]: 2650 nM
- GI50 [20]: 1470 nM
- TGI [20]: 2720 nM
- GI50 [21]: 1440 nM
- TGI [21]: 2630 nM
- GI50 [22]: 1500 nM
- TGI [22]: 3500 nM
- GI50 [23]: 1540 nM
- TGI [23]: 3050 nM
- GI50 [24]: 1360 nM
- TGI [24]: 2820 nM
- GI50 [25]: 1600 nM
- TGI [25]: 4530 nM
- GI50 [26]: 1230 nM
- TGI [26]: 5050 nM
- GI50 [27]: 5520 nM
- TGI [27]: 18300 nM
- GI50 [28]: 2370 nM
- TGI [28]: 7030 nM
- GI50 [29]: 1470 nM
- TGI [29]: 2800 nM
- GI50 [30]: 1700 nM
- TGI [30]: 3300 nM
- GI50 [31]: 2280 nM
- TGI [31]: 9030 nM
- GI50 [32]: 1800 nM
- TGI [32]: 4580 nM
- GI50 [33]: 2890 nM
- TGI [33]: 13000 nM
- GI50 [34]: 3280 nM
- TGI [34]: 12700 nM
- GI50 [35]: 6780 nM
- TGI [35]: 18400 nM
- GI50 [36]: 2140 nM
- TGI [36]: 6260 nM
- GI50 [37]: 2240 nM
- TGI [37]: 6670 nM
- GI50 [38]: 1630 nM
- TGI [38]: 5000 nM
- GI50 [39]: 2170 nM
- TGI [39]: 9910 nM
- GI50 [40]: 1520 nM
- TGI [40]: 2970 nM
- GI50 [41]: 1370 nM
- TGI [41]: 2540 nM
- GI50 [42]: 10700 nM
- TGI [42]: 23800 nM
- GI50 [43]: 1560 nM
- TGI [43]: 2870 nM
- GI50 [44]: 1450 nM
- TGI [44]: 2780 nM
- GI50 [45]: 12600 nM
- TGI [45]: 27200 nM
- GI50 [46]: 3620 nM
- TGI [46]: 14800 nM
- GI50 [47]: 1650 nM
- TGI [47]: 3620 nM
- GI50 [48]: 1200 nM
- TGI [48]: 8390 nM
- GI50 [49]: 1870 nM
- TGI [49]: 4670 nM
- GI50 [50]: 1450 nM
- TGI [50]: 2730 nM
- GI50 [51]: 2110 nM
- TGI [51]: 8140 nM
- GI50 [52]: 8670 nM
- TGI [52]: 22100 nM
- GI50 [53]: 1690 nM
- TGI [53]: 3470 nM
- GI50 [54]: 1510 nM
- TGI [54]: 2850 nM
- GI50 [55]: 1530 nM
- TGI [55]: 2830 nM
- GI50 [56]: 2330 nM
- TGI [56]: 9270 nM
